Measured values as given in the NIST ThermoML archive (doi:10.1021/acs.jced.5b00662).
Values joined by “and” are separate entries in the source; they are usually repeats but may differ in a detail not shown here. Equal values may be shown once. Numbers after ± are expanded uncertainties.

Tests used:
[1] = 101.33 kPa, Liquid; for speed of sound: Sing-around technique in a fixed-path interferometer; for mass density: Vibrating tube method; for viscosity: Concentric cylinders viscometry
[2] = refractive index (Na D-line) (dimensionless); settings: 101.33 kPa, Liquid, Standard Abbe refractometry

COCCOCCOCCOCCOC [2,5,8,11,14-pentaoxapentadecane]
Settings | mass density, [1] | refractive index, [2] | speed of sound, [1] [m/s] | viscosity, [1] [mPa·s]
283.15 K | 1020.7 ± 2 kg/m3 | 1.43599 ± 0.00061 | 1439.7 ± 1.6 | –
288.15 K | 1017 ± 2 kg/m3 and 1016.1 ± 2 kg/m3 | 1.43414 ± 0.00061 | 1420.3 ± 1.6 | 4.337 ± 0.18
293.15 K | 1012.3 ± 2 kg/m3 and 1011.5 ± 2 kg/m3 | 1.43196 ± 0.00061 | 1401 ± 1.6 | 3.846 ± 0.16
298.15 K | 1006.8 ± 2 kg/m3 and 1007.6 ± 2 kg/m3 | 1.42992 ± 0.00061 | 1382 ± 1.6 | 3.335 ± 0.14
303.15 K | 1002.2 ± 2 kg/m3 and 1003.1 ± 2 kg/m3 | 1.42777 ± 0.00061 | 1363.1 ± 1.5 | 2.967 ± 0.12
308.15 K | 997.6 ± 2 kg/m3 and 998.8 ± 2 kg/m3 | – | 1344.3 ± 1.5 | 2.66 ± 0.11
313.15 K | 993 ± 2 kg/m3 and 994.1 ± 2 kg/m3 | 1.42373 ± 0.00061 | 1325.6 ± 1.5 | 2.389 ± 0.097
318.15 K | 989.5 ± 2 kg/m3 | – | – | 2.183 ± 0.089
323.15 K | 983.7 ± 2 kg/m3 and 984.9 ± 2 kg/m3 | 1.41973 ± 0.00061 | 1289.1 ± 1.5 | 1.995 ± 0.081
328.15 K | 980.2 ± 2 kg/m3 | – | – | 1.832 ± 0.074
333.15 K | 974.5 ± 2 kg/m3 and 975.6 ± 2 kg/m3 | 1.41578 ± 0.00061 | 1253.4 ± 1.5 | 1.677 ± 0.068
338.15 K | 971 ± 2 kg/m3 | – | – | 1.566 ± 0.064
343.15 K | 966.5 ± 2 kg/m3 and 965.3 ± 2 kg/m3 | 1.41174 ± 0.00061 | 1218.5 ± 1.5 | 1.456 ± 0.059
348.15 K | 961.9 ± 2 kg/m3 | – | – | 1.358 ± 0.055
353.15 K | 957.3 ± 2 kg/m3 | 1.40773 ± 0.00061 | – | 1.25 ± 0.051
358.15 K | 952.7 ± 2 kg/m3 | – | – | 1.188 ± 0.048
363.15 K | 948.1 ± 2 kg/m3 | – | – | 1.115 ± 0.045
368.15 K | 943.5 ± 2 kg/m3 | – | – | 1.047 ± 0.043
373.15 K | 938.9 ± 2 kg/m3 | – | – | 0.978 ± 0.04
